Data on 22 molecules can be found in patent publication US20240327381A1, “Compounds and Compositions for Selective Degradation of Engineered Proteins” (Celgene Corporation, priority 2023, published 2024).

Experiment [1] has as its target T1, IKZF1 ZNF2_ZNF3 Q1F degron-tagged CD19 CAR (Homo sapiens, UniProt Q13422, Q146F).
T1 construct: ZNF2_ZNF3 Q1F degron (GERPFFCNQCGASFTQKGNLLRHIKLHSGEKPFKCHLCNYACRRRDALTGHLRTHS); fused on or other part: anti-CD19 scFv, CD28 transmembrane domain, 4-1BB costimulatory domain, CD3 zeta signaling domain (the CAR that carries the degron), and Nluc
Nature of the experiment: Degradation of Q1F degron-tagged CD19 CAR in Jurkat cells (flow cytometry of CAR levels). Format: cell-based. The settings on record: for DC50: Jurkat cells expressing CD19 CAR tagged with IKZF1 ZNF2_ZNF3 Q1F, 18 hours at 37° C., CAR levels normalized to untreated cells, read-out: Q1F Jurkat IC50; for Dmax: read-out: Q1F Jurkat-YMax. In short, it runs like this: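 Jurkat cells were lentivirally transduced with an anti-CD19 scFv/CD28 TM/4-1BB/CD3ζ CAR tagged with an IKZF1 ZNF2_ZNF3 Q1F degron–Nluc, then treated with compound titrations for 18 h at 37 °C. CAR surface levels were stained (20 min, 4 °C), read by flow cytometry and normalised to untreated cells. EC50 came from a four-parameter logistic fit; Ymin is the minimum % CAR remaining.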

A further experiment concerns the target T2, Helios (Homo sapiens, UniProt Q9UKS7).
T2 construct: endogenous in cells; host or cells: Jurkat cells, CRISPR/Cas9 knock-in of HiBit at the IKZF2 locus
The experiment can be described thus: Helios degradation in Jurkat/Helios/HiBit cells (Nano-Glo luminescence). The settings on record: 18 hr, read-out: Helios Jurkat Hibit IC50. Format: cell-based. An outline of the steps:
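Jurkat cells carrying CRISPR-knocked-in C-terminal HiBit-tagged endogenous IKZF2 were treated with compound in DMEM/10% FCS (10,000 cells/well) for 18 h at 37 °C. HiBit signal was read by Nano-Glo luminescence after 30 min at RT. EC50 for degradation came from a four-parameter logistic fit, with Ymax as % protein degraded.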

The mark [2] stands for this setting: Ymax is the % protein degraded, Jurkat cells expressing Q1F degron-tagged CD19 CAR, 18 hours.

Like-named read-outs stand apart in the source and are kept apart here. Bounds are passed on as bounds.

T1 sequence (Q13422 whole entry Q146F, the tested form may be a part): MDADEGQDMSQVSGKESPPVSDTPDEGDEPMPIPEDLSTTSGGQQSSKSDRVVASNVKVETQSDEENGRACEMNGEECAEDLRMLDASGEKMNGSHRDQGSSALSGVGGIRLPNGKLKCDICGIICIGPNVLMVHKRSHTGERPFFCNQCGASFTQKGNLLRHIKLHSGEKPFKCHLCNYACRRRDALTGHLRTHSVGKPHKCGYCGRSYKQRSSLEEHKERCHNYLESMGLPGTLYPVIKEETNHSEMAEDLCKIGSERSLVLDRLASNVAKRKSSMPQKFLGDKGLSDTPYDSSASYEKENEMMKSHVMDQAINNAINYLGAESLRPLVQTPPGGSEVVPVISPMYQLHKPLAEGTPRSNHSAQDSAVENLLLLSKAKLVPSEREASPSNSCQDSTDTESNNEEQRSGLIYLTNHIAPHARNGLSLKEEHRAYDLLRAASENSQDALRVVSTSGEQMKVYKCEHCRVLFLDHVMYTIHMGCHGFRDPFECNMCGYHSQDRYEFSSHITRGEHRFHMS
T2 sequence (Q9UKS7 whole entry): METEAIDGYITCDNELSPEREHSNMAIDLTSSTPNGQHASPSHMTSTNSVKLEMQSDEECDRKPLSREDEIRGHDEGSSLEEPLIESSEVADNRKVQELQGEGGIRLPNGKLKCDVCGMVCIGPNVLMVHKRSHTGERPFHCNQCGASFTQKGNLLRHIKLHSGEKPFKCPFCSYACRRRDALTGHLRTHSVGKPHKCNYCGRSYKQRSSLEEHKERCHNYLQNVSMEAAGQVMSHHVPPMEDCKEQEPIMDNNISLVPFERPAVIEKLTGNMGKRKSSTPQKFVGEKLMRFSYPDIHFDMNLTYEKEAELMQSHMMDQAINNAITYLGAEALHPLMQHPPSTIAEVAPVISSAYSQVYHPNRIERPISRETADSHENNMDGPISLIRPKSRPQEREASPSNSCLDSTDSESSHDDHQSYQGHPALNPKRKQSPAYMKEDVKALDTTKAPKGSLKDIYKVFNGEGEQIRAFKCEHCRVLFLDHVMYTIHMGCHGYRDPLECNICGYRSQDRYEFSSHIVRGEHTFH
T2 sequence (Q96SW2 whole entry, further chain): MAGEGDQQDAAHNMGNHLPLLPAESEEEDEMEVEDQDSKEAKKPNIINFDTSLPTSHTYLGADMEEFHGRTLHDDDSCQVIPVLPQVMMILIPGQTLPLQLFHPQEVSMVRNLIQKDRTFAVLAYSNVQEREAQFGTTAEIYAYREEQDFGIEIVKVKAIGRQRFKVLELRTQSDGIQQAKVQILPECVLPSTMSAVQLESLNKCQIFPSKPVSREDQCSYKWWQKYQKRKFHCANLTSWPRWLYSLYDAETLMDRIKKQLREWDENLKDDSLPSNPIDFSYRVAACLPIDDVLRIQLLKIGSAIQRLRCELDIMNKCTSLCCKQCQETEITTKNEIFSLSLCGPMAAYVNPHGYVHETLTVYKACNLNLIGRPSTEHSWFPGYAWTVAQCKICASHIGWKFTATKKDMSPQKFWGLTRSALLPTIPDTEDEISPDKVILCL
T2 sequence (Q16531 whole entry partner): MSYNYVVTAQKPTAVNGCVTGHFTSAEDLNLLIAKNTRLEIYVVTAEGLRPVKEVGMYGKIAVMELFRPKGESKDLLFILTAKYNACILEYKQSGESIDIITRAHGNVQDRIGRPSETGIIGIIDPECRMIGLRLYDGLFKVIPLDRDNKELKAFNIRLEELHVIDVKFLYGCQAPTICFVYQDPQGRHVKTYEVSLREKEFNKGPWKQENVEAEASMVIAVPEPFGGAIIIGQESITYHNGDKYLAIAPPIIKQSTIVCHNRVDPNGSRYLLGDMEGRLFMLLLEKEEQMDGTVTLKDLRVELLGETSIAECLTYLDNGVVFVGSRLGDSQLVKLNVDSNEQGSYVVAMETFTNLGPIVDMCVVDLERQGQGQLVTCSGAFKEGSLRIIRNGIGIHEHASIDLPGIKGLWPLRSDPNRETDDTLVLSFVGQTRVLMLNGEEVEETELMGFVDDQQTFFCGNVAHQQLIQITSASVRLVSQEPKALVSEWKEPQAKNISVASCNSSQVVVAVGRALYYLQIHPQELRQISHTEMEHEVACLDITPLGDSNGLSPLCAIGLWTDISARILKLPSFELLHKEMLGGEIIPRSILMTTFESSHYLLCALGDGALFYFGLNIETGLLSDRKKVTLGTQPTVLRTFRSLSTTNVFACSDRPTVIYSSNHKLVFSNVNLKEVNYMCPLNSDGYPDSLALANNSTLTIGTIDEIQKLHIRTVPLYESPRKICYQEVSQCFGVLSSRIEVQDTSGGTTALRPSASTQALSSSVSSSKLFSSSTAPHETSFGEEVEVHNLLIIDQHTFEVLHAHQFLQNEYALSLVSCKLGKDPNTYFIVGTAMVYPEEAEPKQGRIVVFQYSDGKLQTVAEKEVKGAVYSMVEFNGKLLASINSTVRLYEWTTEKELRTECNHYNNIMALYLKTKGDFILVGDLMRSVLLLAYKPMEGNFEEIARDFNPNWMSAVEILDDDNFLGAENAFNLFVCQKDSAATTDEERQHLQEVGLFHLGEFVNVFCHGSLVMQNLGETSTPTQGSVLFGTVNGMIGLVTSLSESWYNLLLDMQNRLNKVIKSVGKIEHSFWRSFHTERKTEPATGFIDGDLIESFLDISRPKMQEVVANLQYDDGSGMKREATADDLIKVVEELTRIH

Regarding `COc1ccc(CN2CCC(O)(c3c(F)cc4c(c3F)CN(C3CCC(=O)NC3=O)C4=O)CC2)nc1` (stereo not drawn) [Compound 37, 3-(4,6-difluoro-5-(4-hydroxy-1-((5-methoxypyridin-2-yl)methyl)piperidin-4-yl)-1-oxoisoindolin-2-yl)piperidine-2,6-dione], the DC50 in experiment [1] was 33.2 nM; at Helios, ≥ 10000 nM. Moreover, in experiment [1] (setting [2]), the Dmax stood at 62.5%.
In the case of `O=C1CCC(N2Cc3c(cc(F)c(C4CCN(CC(c5ccccc5)c5ccccc5)CC4)c3F)C2=O)C(=O)N1` (stereo not drawn) [Compound 10, 3-(5-(1-(2,2-diphenylethyl)piperidin-4-yl)-4,6-difluoro-1-oxoisoindolin-2-yl)piperidine-2,6-dione], the DC50 was 0.202 nM in experiment [1] and ≥ 10000 nM at Helios. For the same molecule, in experiment [1] (setting [2]), the Dmax amounted to 90.7%.
With `Cc1cc(Br)cnc1CN1CCC(c2c(F)cc3c(c2F)CN(C2CCC(=O)NC2=O)C3=O)CC1` (stereo not drawn) [Compound 48, 3-(5-(1-((5-bromo-3-methylpyridin-2-yl)methyl)piperidin-4-yl)-4,6-difluoro-1-oxoisoindolin-2-yl)piperidine-2,6-dione], the DC50 in experiment [1] is 2.24 nM; at Helios it was ≥ 10000 nM. The Dmax in experiment [1] (setting [2]) was 87.8%.
For `O=C1CCC(N2Cc3c(cc(F)c(C4CCN(Cc5cc(F)ccc5-n5cccn5)CC4)c3F)C2=O)C(=O)N1` (stereo not drawn) [Compound 47, 3-(4,6-difluoro-5-(1-(5-fluoro-2-(1H-pyrazol-1-yl)benzyl)piperidin-4-yl)-1-oxoisoindolin-2-yl)piperidine-2,6-dione], the DC50 in experiment [1] was 2.5 nM; at Helios it was ≥ 10000 nM. In addition, the Dmax in experiment [1] (setting [2]) turned out to be 88.8%.
For `O=C1CCC(N2Cc3c(cc(F)c(C4CCN(Cc5nc(C(F)(F)F)cs5)CC4)c3F)C2=O)C(=O)N1` (stereo not drawn) [Compound 105, 3-(4,6-difluoro-1-oxo-5-(1-((4-(trifluoromethyl)thiazol-2-yl)methyl)piperidin-4-yl)isoindolin-2-yl)piperidine-2,6-dione], the figures for the DC50 (in experiment [1]; on Helios) were 83.5 nM and ≥ 10000 nM, respectively. Besides, the Dmax in experiment [1] (setting [2]) stood at 75.3%.
Take `Cc1ccc(CCN2CCC(c3c(F)cc4c(c3F)CN(C3CCC(=O)NC3=O)C4=O)CC2)cc1` (stereo not drawn) [Compound 111, 3-(4,6-difluoro-5-(1-(4-methylphenethyl)piperidin-4-yl)-1-oxoisoindolin-2-yl)piperidine-2,6-dione]: the DC50 in experiment [1] is 7.45 nM; on Helios it was ≥ 10000 nM. Further, in experiment [1] (setting [2]), the Dmax was 82.7%.
On to `O=C1CCC(N2Cc3cc(C4CCN(Cc5cccc6ncsc56)CC4)c(F)cc3C2=O)C(=O)N1` (stereo not drawn) [Compound 91, 3-(5-(1-(benzo[d]thiazol-7-ylmethyl)piperidin-4-yl)-6-fluoro-1-oxoisoindolin-2-yl)piperidine-2,6-dione], for which the values for the DC50 (in experiment [1]; on Helios) were 3.9 nM and ≥ 10000 nM, respectively. The Dmax in experiment [1] (setting [2]) amounted to 92.1%.
As to `O=C1CCC(N2Cc3c(cc(F)c(C4CCN(CC5CCCCC5)CC4)c3F)C2=O)C(=O)N1` (stereo not drawn) [Compound 67, 3-(5-(1-(cyclohexylmethyl)piperidin-4-yl)-4,6-difluoro-1-oxoisoindolin-2-yl)piperidine-2,6-dione], the DC50 in experiment [1] was 0.563 nM; on Helios it was ≥ 10000 nM. Further, in experiment [1] (setting [2]), the Dmax was determined as 89%.
As to `O=C1CCC(N2Cc3c(cc(F)c(C(=O)N4Cc5cccnc5C4)c3F)C2=O)C(=O)N1` (stereo not drawn) [Compound 77, 3-(5-(6,7-dihydro-5H-pyrrolo[3,4-b]pyridine-6-carbonyl)-4,6-difluoro-1-oxoisoindolin-2-yl)piperidine-2,6-dione], the DC50 is 14.8 nM in experiment [1] and ≥ 10000 nM at Helios. Moreover, the Dmax in experiment [1] (setting [2]) turned out to be 94.8%.
As for `O=C1CCC(N2Cc3c(cc(F)c(C4CCN(Cc5ccc(F)cc5)CC4)c3F)C2=O)C(=O)N1` (stereo not drawn) [Compound 2, 3-(4,6-difluoro-5-(1-(4-fluorobenzyl)piperidin-4-yl)-1-oxoisoindolin-2-yl)piperidine-2,6-dione], the results for the DC50 (in experiment [1]; at Helios) were 1.43 nM and ≥ 10000 nM, respectively. Further, in experiment [1] (setting [2]), the Dmax turned out to be 88.8%.
`CS(=O)(=O)NCCN1CCC(c2c(F)cc3c(c2F)CN(C2CCC(=O)NC2=O)C3=O)CC1` (stereo not drawn) [Compound 98, N-(2-(4-(2-(2,6-dioxopiperidin-3-yl)-4,6-difluoro-1-oxoisoindolin-5-yl)piperidin-1-yl)ethyl)methanesulfonamide]: the DC50 in experiment [1] is 39.8 nM; on Helios it was ≥ 10000 nM. The Dmax in experiment [1] (setting [2]) was 76.9%.
On the same counts, the results for `O=C1CCC(N2Cc3c(cc(F)c(CNC(=O)C4CCC(C(F)(F)F)CC4)c3F)C2=O)C(=O)N1` (stereo not drawn) [Compound 78, N-((2-(2,6-dioxopiperidin-3-yl)-4,6-difluoro-1-oxoisoindolin-5-yl)methyl)-4-(trifluoromethyl)cyclohexane-1-carboxamide] are 24.5 nM, ≥ 10000 nM and 61.7%.
`COc1cccc(CN2CCC(O)(c3c(F)cc4c(c3F)CN(C3CCC(=O)NC3=O)C4=O)CC2)c1` (stereo not drawn) [Compound 36, 3-(4,6-difluoro-5-(4-hydroxy-1-(3-methoxybenzyl)piperidin-4-yl)-1-oxoisoindolin-2-yl)piperidine-2,6-dione]: the values for the DC50 (in experiment [1]; on Helios) were 3.77 nM and ≥ 10000 nM, respectively. In addition, in experiment [1] (setting [2]), the Dmax amounted to 77.7%.
On to `O=C1CCC(N2Cc3c(cc(F)c(CNC(=O)c4cc5ccccn5c4)c3F)C2=O)C(=O)N1` (stereo not drawn) [Compound 69, N-[[2-(2,6-dioxo-3-piperidyl)-4,6-difluoro-1-oxo-isoindolin-5-yl]methyl]indolizine-2-carboxamide], for which the DC50 in experiment [1] is 35.2 nM; at Helios, ≥ 10000 nM. In addition, in experiment [1] (setting [2]), the Dmax was 53.9%.
Take `O=C1CCC(N2Cc3c(cc(F)c(C4(O)CCN(Cc5ccc(C(F)(F)F)cc5O)CC4)c3F)C2=O)C(=O)N1` (stereo not drawn) [Compound 22, 3-(4,6-difluoro-5-(4-hydroxy-1-(2-hydroxy-4-(trifluoromethyl)benzyl)piperidin-4-yl)-1-oxoisoindolin-2-yl)piperidine-2,6-dione]: the DC50 in experiment [1] is 14.3 nM; at Helios it was ≥ 10000 nM. In experiment [1] (setting [2]), the Dmax is 80%.
On to `O=C1CCC(N2Cc3c(cc(F)c(C4CCN(Cc5ccc(Cl)cc5)CC4)c3F)C2=O)C(=O)N1` (stereo not drawn) [Compound 96, 3-(5-(1-(4-chlorobenzyl)piperidin-4-yl)-4,6-difluoro-1-oxoisoindolin-2-yl)piperidine-2,6-dione], for which the DC50 is 4.17 nM in experiment [1] and ≥ 10000 nM at Helios. Also, the Dmax in experiment [1] (setting [2]) came to 89.7%.
With `O=C1CCC(N2Cc3c(cc(F)c(C4(O)CCN(Cc5n[nH]c6ccccc56)CC4)c3F)C2=O)C(=O)N1` (stereo not drawn) [Compound 41, 3-[4,6-difluoro-5-[4-hydroxy-1-(1H-indazol-3-ylmethyl)-4-piperidyl]-1-oxo-isoindolin-2-yl] piperidine-2,6-dione], the DC50 in experiment [1] was 95.3 nM; at Helios it was ≥ 10000 nM. Further, in experiment [1] (setting [2]), the Dmax came out at 66.2%.
For `CS(=O)(=O)c1ccc(CN2CCC(c3cc4c(cc3F)C(=O)N(C3CCC(=O)NC3=O)C4)CC2)cc1` (stereo not drawn) [Compound 90, 3-(6-fluoro-5-(1-(4-(methylsulfonyl)benzyl)piperidin-4-yl)-1-oxoisoindolin-2-yl)piperidine-2,6-dione], the DC50 in experiment [1] was 4.68 nM; at Helios, ≥ 10000 nM. In addition, in experiment [1] (setting [2]), the Dmax amounted to 93.1%.
Turning to `O=C1CCC(N2Cc3cc(C4CCN(Cc5ccc(C(F)(F)F)cc5)CC4)c(F)cc3C2=O)C(=O)N1` (stereo not drawn) [Compound 85, 3-(6-fluoro-1-oxo-5-(1-(4-(trifluoromethyl)benzyl)piperidin-4-yl)isoindolin-2-yl) piperidine-2,6-dione], the DC50 in experiment [1] is 1.53 nM; on Helios it was ≥ 10000 nM. Besides, the Dmax in experiment [1] (Jurkat, 18 h) worked out at 89.3%.
On to `O=C1CCC(N2Cc3c(cc(F)c(C(=O)N4CCc5c(Cl)cccc5C4)c3F)C2=O)C(=O)N1` (stereo not drawn) [Compound 71, 3-[5-(5-chloro-3,4-dihydro-1H-isoquinoline-2-carbonyl)-4,6-difluoro-1-oxo-isoindolin-2-yl]piperidine-2,6-dione], for which the DC50 in experiment [1] was 23.7 nM; on Helios it was ≥ 10000 nM. Further, in experiment [1] (setting [2]), the Dmax came to 95.7%.
For `O=C1CCC(N2Cc3cc(C4CCN(Cc5ccc6scnc6c5)CC4)c(F)cc3C2=O)C(=O)N1` (stereo not drawn) [Compound 86, 3-(5-(1-(benzo[d]thiazol-5-ylmethyl)piperidin-4-yl)-6-fluoro-1-oxoisoindolin-2-yl)piperidine-2,6-dione], in that order: 1.94 nM, ≥ 10000 nM and 92.1%.
On the same counts, the results for `O=C1CCC(N2Cc3c(cc(F)c(C4CCN(Cc5ccnn5-c5ccccc5)CC4)c3F)C2=O)C(=O)N1` (stereo not drawn) [Compound 9, 3-(4,6-difluoro-1-oxo-5-(1-((1-phenyl-1H-pyrazol-5-yl)methyl)piperidin-4-yl)isoindolin-2-yl)piperidine-2,6-dione] are 2.74 nM, ≥ 10000 nM and 89.1%.
